According to patent US8293772B2, “Triazole substituted aminobenzophenone compounds” (Leo Pharma A/S, priority 2004, dated 2012):

Tests used:
TNF-α [1] = experiment: In vivo screening model of LPS induced TNF-α response in mice; settings: Mus musculus, ip, tested at 10 mg/kg i.p., plasma TNF-α 80-90 minutes after LPS, read-out: In vivo inhibition of LPS induced TNF-α production (in %)
IL-1β = experiment: Inhibition of IL-1β secretion in LPS stimulated peripheral blood mononuclear cells; format: cell-based; settings: LPS stimulated human PBMC, 18 hours, ELISA; read-out: The median inhibition concentration (IC50, nM) of IL-1β
Procedure: (§1) To study the effect of compounds of the present invention in vitro, the inhibition of IL-1β and TNF-α secretion was determined using the following procedure:
(§2) Cytokine production was measured in the media from lipopolysaccharide (LPS) stimulated peripheral blood mononuclear cells. The mononuclear cells were isolated from human peripheral blood by Lymphoprep® (Nycomed, Norway) fractionation and suspended in RPMI 1640 (growth medium) with foetal calf serum (FCS, 2%), at a concentration of 5×10^5 cells/ml. The cells were incubated in 24-well tissue culture plates in 1 ml aliquots. Test compounds were dissolved in dimethylsulfoxide (DMSO, 10 mM) and were diluted with the medium. Compounds were added to the cells for 30 minutes, then LPS ([…] final concentration) was added. The plates were incubated for 18 hours, and the concentration of IL-1β and TNF-α in the medium was determined by enzyme-linked immunosorbent assays. The median inhibitory concentrations (IC50) of the compounds were calculated.

TNF-α [2] = experiment: Inhibition of TNF-α secretion in LPS stimulated peripheral blood mononuclear cells; format: cell-based; settings: LPS stimulated human PBMC, 18 hours, ELISA; read-out: The median inhibition concentration (IC50, nM) of TNF-α
Procedure: as §1, §2

TNF-α [3] = experiment: In vivo screening model of LPS induced TNF-α response in mice; settings: Mus musculus, po, 1 mg/kg p.o., 1 hour prior to LPS, plasma TNF-α 80-90 minutes after LPS, read-out: In vivo inhibition of LPS induced TNF-α production (in %)
Procedure: In Vivo Screening Model of LPS Induced TNF-α Response in Mice
To study the effect of compounds of the present invention in vivo, an in vivo screening model of LPS induced TNF-α response in mice was set up as follows: Groups of 6 mice (C3H/HeN, female, about 8 weeks (20 g), Bomholtgaard) were dosed with test compounds in suspension vehicle 1 hour prior to LPS administration (LPS from E. coli 055:B5, L-4005, Sigma). At time 0, the mice were dosed ip with 1.0 mg LPS/kg. After anesthetization with Hypnorm/Dormicum, the mice were bled from the periorbital venous plexus 80-90 minutes after LPS administration. The blood samples were sampled in EDTA stabilised tubes and centrifuged at 4000 rpm for 10 minutes at 4° C. The plasma level of TNF-α was analysed by ELISA. Compound 156 of WO 98/32730 was used as reference compound. The plasma level of TNF-α was determined using a sandwich ELISA. Microtiter plates were coated with a monoclonal antibody against mouse TNF-α, washed and blocked with a casein buffer. Samples of mouse TNF-α recombinant standards were added to the wells of the microtiter plates and incubated. All standards were tested in triplicate, all plasma samples in single. After sample and standard incubation, the plates were washed and incubated with biotinylated polyclonal secondary antibody against mouse TNF-α and washed. Enzyme conjugate was added to all wells and incubated. Substrate was added and the enzyme/substrate reaction stopped after 15 minutes at room temperature with 1M H2SO4. The colour development (OD) was measured at 450 nm on an ELISA reader and the background OD at 620 nm was subtracted. […] The results of the tested compounds are indicated as a percentage inhibition compared to an LPS treated control group. Compounds were tested at 1 mg/kg (p.o.). The Mann-Whitney test was used to compare drug treated groups to the LPS treated control group (p<0.05).

p38α MAP kinase = biological target: T1, p38α MAP kinase (Homo sapiens, UniProt Q16539); experiment: p38α MAP kinase assay (immunoprecipitated FLAG-p38α from COS-1 cells, GST-ATF-2 substrate); format: biochemical
T1 construct: made in house; host or cells: COS-1 cells (transient co-transfection), immunoprecipitated with anti-FLAG M2 on Protein G Sepharose
T1 sequence (Q16539 whole entry): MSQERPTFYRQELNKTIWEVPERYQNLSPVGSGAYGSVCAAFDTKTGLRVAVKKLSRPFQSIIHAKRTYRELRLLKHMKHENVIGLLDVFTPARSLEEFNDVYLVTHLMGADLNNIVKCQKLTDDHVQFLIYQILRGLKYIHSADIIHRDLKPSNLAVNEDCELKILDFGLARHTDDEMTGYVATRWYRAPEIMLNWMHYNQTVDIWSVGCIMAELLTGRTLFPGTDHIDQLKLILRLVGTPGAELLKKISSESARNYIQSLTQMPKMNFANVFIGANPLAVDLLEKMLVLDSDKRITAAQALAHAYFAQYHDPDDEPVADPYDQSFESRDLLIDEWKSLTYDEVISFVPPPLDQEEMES
Procedure: COS-1 cells (derived from African green monkey kidney fibroblast-like cell containing wild-type T antigen under control of the SV40 promotor) were obtained from ATCC (ATCC no. CRL-1650) and grown in growth medium (DMEM without phenolred, 10% FCS, 2 mM L-glutamine, 100U penicillin and 100 μg streptomycin/ml) at 37° C. with 5% CO2. The cells were passaged twice a week by trypsination (0.25% trypsin, 1 mM EDTA in PBS) and were split 1:10. The medium was changed every second or third day. The cell line was regularly tested with the Mycoplasma PCR Primer Set (Stratagene) and found to be free of Mycoplasma. Tissue culture media, FCS, L-glutamine and penicillin and streptomycin are from Bribco BRL, Gaithersburg, Md., USA.
On day one COS-1 cells were seeded in 143 cm^2 petridish with a density of 2×10^4 celler/cm^2 in growth medium. At day 2 the cells were co-transfected with 5 μg (total) of experimental plasmid DNA, expressing the FLAG-p38α and FLAG-MKK6(EE). The plasmids were introduced into the COS-1 cells in serum-free medium using DOTAP™ (Boehringer-Mannheim, Mannheim, Germany). Plasmid DNA was prepared and purified using the QIAGEN EndoToxin-free Maxiprep-500 kit (Hilden, Germany). Briefly, DNA and DOTAP™ were mixed for exactly 15 min. at 37° C. in the CO2 incubator. […]

Structure (SMILES) | inhibition in vivo at 10 mg/kg (TNF-α [1]) | IC50 (IL-1β) | IC50 (TNF-α [2]) | inhibition in vivo at 1 mg/kg (TNF-α [3]) | p38 MAP kinase inhibition (p38α MAP kinase)
Cc1ccccc1C(=O)c1ccc(Nc2ccccc2N)cc1Cl [Ref. comp. a, 4-(2-aminophenylamino)-2-chloro-2′-methylbenzophenone] | 23% | – | – | – | –
Cc1ccc(-n2cc(CCO)nn2)cc1C(=O)c1ccc(Nc2ccc(F)cc2)cc1Cl [Compound 127, [2-Chloro-4-(4-fluoro-phenylamino)-phenyl]-{5-[4-(2-hydroxy-ethyl)-[1,2,3]triazol-1-yl]-2-methyl-phenyl}-methanone] | – | 0.9 nM | 0.7 nM | 94% | –
Cc1ccc(-c2cn(CC(O)CO)nn2)cc1C(=O)c1ccc(Nc2ccc(F)cc2)cc1Cl (centres unmarked) [Compound 124, [2-Chloro-4-(4-fluoro-phenylamino)-phenyl]-{5-[1-(2,3-dihydroxy-propyl)-1H-[1,2,3]triazol-4-yl]-2-methyl-phenyl}-methanone] | – | 0.8 nM | 0.5 nM | 77% | –
Cc1ccc(-c2cn(CC(O)CO)nn2)cc1C(=O)c1ccc(Nc2ccc(F)cc2F)cc1Cl (centres unmarked) [Compound 106, [2-Chloro-4-(2,4-difluoro-phenylamino)-phenyl]-{5-[1-(2,3-dihydroxy-propyl)-1H-[1,2,3]triazol-4-yl]-2-methyl-phenyl}-methanone] | – | 0.7 nM | 0.5 nM | 98% | –
Cc1ccc(-n2cc(C(C)(C)N)nn2)cc1C(=O)c1ccc(Nc2ccc(F)cc2F)cc1Cl [Compound 131, {5-[4-(1-Amino-1-methyl-ethyl)-[1,2,3]triazol-1-yl]-2-methyl-phenyl}-[2-chloro-4-(2,4-difluoro-phenylamino)-phenyl]-methanone] | – | 2.5 nM | 1.8 nM | 80% | –
Cc1ccc(-c2cn(CCO)nn2)cc1C(=O)c1ccc(Nc2ccc(F)cc2F)cc1Cl [Compound 102, [2-Chloro-4-(2,4-difluoro-phenylamino)-phenyl]-{5-[1-(2-hydroxy-ethyl)-1H-[1,2,3]triazol-4-yl]-2-methyl-phenyl}-methanone] | – | 1.3 nM | 0.5 nM | 94% | potent p38 MAP kinase inhibitor
Cc1ccc(-c2cn(CCCO)nn2)cc1C(=O)c1ccc(Nc2ccc(F)cc2F)cc1Cl [Compound 104, [2-Chloro-4-(2,4-difluoro-phenylamino)-phenyl]-{5-[1-(3-hydroxy-propyl)-1H-[1,2,3]triazol-4-yl]-2-methyl-phenyl}-methanone] | – | 0.6 nM | 0.5 nM | 90% | –
Cc1ccc(-c2cn(CC(N)=O)nn2)cc1C(=O)c1ccc(Nc2ccc(F)cc2F)cc1Cl [Compound 107, 2-(4-{3-[2-Chloro-4-(2,4-difluoro-phenylamino)-benzoyl]-4-methyl-phenyl}-[1,2,3]triazol-1-yl)-acetamide] | – | 0.8 nM | 0.5 nM | 91% | –
Cc1ccc(-c2cn(CC(N)=O)nn2)cc1C(=O)c1ccc(Nc2ccc(F)cc2)cc1Cl [Compound 125, 2-(4-{3-[2-Chloro-4-(4-fluoro-phenylamino)-benzoyl]-4-methyl-phenyl}-[1,2,3]triazol-1-yl)-acetamide] | – | 1 nM | 0.5 nM | 96% | –
Cc1ccc(-c2cn(CCCS(N)(=O)=O)nn2)cc1C(=O)c1ccc(Nc2ccc(F)cc2F)cc1Cl [Compound 108, 3-(4-{3-[2-Chloro-4-(2,4-difluoro-phenylamino)-benzoyl]-4-methyl-phenyl}-[1,2,3]triazol-1-yl)-propane-1-sulfonic acid amide] | – | 1.3 nM | 0.7 nM | 78% | –
Cc1ccc(-c2cn(CC(=O)N3CCOCC3)nn2)cc1C(=O)c1ccc(Nc2ccc(F)cc2F)cc1Cl [Compound 115, 2-(4-{3-[2-Chloro-4-(2,4-difluoro-phenylamino)-benzoyl]-4-methyl-phenyl}-[1,2,3]triazol-1-yl)-1-morpholin-4-yl-ethanone] | – | 0.5 nM | 0.5 nM | 70% | –
